Legend:
[1] = tested on: Plasmodium falciparum; assay: Antiplasmodial activity against Plasmodium falciparum K1; type: functional, organism-based
[2] = Cytotoxicity against African green monkey Vero cells; type: toxicity, cell-based; conditions: chlorocebus sabaeus
[3] = Cytotoxicity against African green monkey Vero cells assessed as reduction in cell viability incubated for 24 hrs by fluorescence based analysis; type: toxicity; conditions: African green monkey (Chlorocebus sabaeus)
[4] = tested on: Plasmodium falciparum; assay: Antimalarial activity against chloroquine-resistant Plasmodium falciparum W2 assessed as growth inhibition incubated for 48 hrs by flow cytometry based analysis; type: functional, organism-based; conditions: W2, 48 h
[5] = tested on: Plasmodium falciparum; assay: Antimalarial activity against Plasmodium falciparum Dd2 assessed as reduction in parasitic growth incubated for 48 hrs by SYBR green assay; type: functional, organism-based; conditions: Dd2, 48 h
[6] = tested on: Plasmodium falciparum; assay: Antiplasmodial activity against chloroquine-resistant Plasmodium falciparum W2 assessed as parasitic growth inhibition incubated for 72 hrs by SYBR Green staining based fluorescence analysis; type: functional, organism-based; conditions: W2, 72 h
[7] = tested on: Plasmodium falciparum; assay: Antiplasmodial activity against chloroquine-sensitive Plasmodium falciparum 3D7 assessed as parasitic growth inhibition incubated for 72 hrs by SYBR Green staining based fluorescence analysis; type: functional, organism-based; conditions: 3D7, 72 h
[8] = tested on: Plasmodium falciparum; assay: Antiplasmodial activity against Plasmodium falciparum 3D7; type: functional, organism-based
[9] = tested on: Plasmodium falciparum; assay: Antimalarial activity against chloroquine-sensitive Plasmodium falciparum 3D7 assessed as reduction in parasite growth incubated for 36 hrs by Giemsa staining based microscopic analysis; type: functional, organism-based; conditions: 3D7, 36 h
[10] = Cytotoxicity against African monkey Vero cells assessed as reduction in cell viability incubated for 72 hrs by MTT assay; type: toxicity, cell-based; conditions: chlorocebus sabaeus
[11] = tested on: Plasmodium falciparum; assay: Antiplasmodial activity against Plasmodium falciparum Dd2 assessed as reduction in parasitic growth incubated for 48 hrs by SYBR Green staining based fluorescence analysis; type: functional, organism-based; conditions: Dd2, 48 h
[12] = tested on: Plasmodium falciparum; assay: Antiplasmodial activity against Plasmodium falciparum 3D7 assessed as reduction in parasite growth by Lactate dehydrogenase assay; type: functional, organism-based
[13] = tested on: Plasmodium falciparum; assay: Antimalarial activity against Plasmodium falciparum assessed as reduction in parasite growth incubated for 48 hrs by Giemsa staining based analysis; type: functional, organism-based

Question: With `COc1ccc(C(=O)NNc2ccnc3cc(Cl)ccc23)cc1` as the compound, how does the IC50 [1] read?
Answer: Its IC50 is 1.13 µM.

Question: With `N=C(N=C(N)N)SCCNc1ccnc2cc(Cl)ccc12` as the compound, how does the CC50 [2] read?
Answer: Its CC50 is over 11.8 µM.

Question: Which results are given for `O=C1c2ccc(N3CCOCC3)cc2C(=O)N1CCNc1ccnc2cc(Cl)ccc12`?
Answer: IC50 at 24 h [3]: 28.6 µM; IC50 [4]: 0.37 µM

Question: With `COc1ccc2nc(/C=C/c3ccc([N+](=O)[O-])cc3)cc(N3CCOCC3)c2c1` as the compound, how does the IC50 [5] read?
Answer: Its IC50 is over 10 µM.

Question: For `O=C1c2ccc(N3CCOCC3)cc2C(=O)N1CCCNc1ccnc2cc(Cl)ccc12`, which IC50 at 24 h [3] is on record?
Answer: The IC50 at 24 h was 222 µM.

Question: And the IC50 [4]?
Answer: The IC50 was 0.118 µM.

Question: For `CC1(C)OB(c2ccc(OCc3cn(-c4ccnc5ccc(Cl)cc45)nn3)cc2C=O)OC1(C)C`, which IC50 [6] is on record?
Answer: The IC50 was 6.19 µM.

Question: What about the IC50 [7] of the same compound?
Answer: Its IC50 is 6.49 µM.

Question: With `Cc1ccc(C(CCN(C)C)NCC(C)Nc2ccnc3cc(Cl)ccc23)cc1` (configuration not stated) as the compound, how does the IC50 [8] read?
Answer: The IC50 was 5.17 µM.

Question: What does the source list for `O=C(Cn1cc(COc2ccc(Br)cc2)nn1)NCCCCCCNc1ccnc2cc(Cl)ccc12`?
Answer: IC50 [9]: 0.307 µM; CC50 at 72 h [10]: 112 µM

Question: Which IC50 [11] does the source give for `COc1ccc2nc(/C=C/c3ccncc3)cc(N3CCCCC3)c2c1` here?
Answer: Its IC50 is 4.9 µM.

Question: With `O=C(O)/C=C/c1cccc(Nc2ccnc3cc(Cl)ccc23)c1` as the compound, how does the IC50 [12] read?
Answer: The IC50 was 9.63 µM.

Question: With `COc1ccc2nc(/C=C/c3ccncc3)cc(N3CCOCC3)c2c1` as the compound, how does the IC50 [11] read?
Answer: Its IC50 is over 10 µM.

Question: With `COc1ccc2nc(/C=C/c3ccncc3)cc(NCCN(C)C)c2c1` as the compound, how does the IC50 [11] read?
Answer: The IC50 was 0.033 µM.

Question: With `COc1ccc2nc(/C=C/c3ccc([N+](=O)[O-])cc3)cc(N3CCCC3)c2c1` as the compound, how does the IC50 [5] read?
Answer: Its IC50 is 0.493 µM.

Question: Which IC50 [11] does the source give for `COc1ccc2nc(/C=C/c3ccncc3)cc(NC3CCCCC3)c2c1` here?
Answer: Its IC50 is 0.277 µM.

Question: With `NC(S)=NNc1ccnc2cc(Cl)ccc12` as the compound, how does the IC50 [13] read?
Answer: Its IC50 is 25.4 µM.

Question: For `Cc1ccc(C(CCN(Cc2ccccc2)Cc2ccccc2)NCC(C)Nc2ccnc3cc(Cl)ccc23)cc1` (configuration not stated), which IC50 [8] is on record?
Answer: Its IC50 is 2.59 µM.

Question: Which results are given for `O=Cc1cc(OCc2cn(CCNc3ccnc4cc(Cl)ccc34)nn2)ccc1Br`?
Answer: IC50 [6]: 5.07 µM; IC50 [7]: 4.3 µM

Question: With `O=C(Cn1cc(COc2ccc(Cl)cc2)nn1)NCCCCCCNc1ccnc2cc(Cl)ccc12` as the compound, how does the IC50 [9] read?
Answer: Its IC50 is 263 µM.

Question: And the CC50 at 72 h [10]?
Answer: Its CC50 at 72 h is 7.41 µM.

Question: For `COc1ccc2nc(/C=C/c3ccncc3)cc(N3CCCC3)c2c1`, which IC50 [11] is on record?
Answer: Its IC50 is 0.367 µM.

Question: With `COc1ccc(C(CCN2CCOCC2)NCC(C)Nc2ccnc3cc(Cl)ccc23)cc1` (configuration not stated) as the compound, how does the IC50 [8] read?
Answer: Its IC50 is 3.89 µM.

Question: With `CCc1nc(N)nc(N)c1-c1ccc(Cl)cc1` [PYRIMETHAMINE] as the compound, how does the CC50 [2] read?
Answer: The CC50 was 18.1 µM.

Question: Which IC50 [12] does the source give for `CCOC(=O)/C=C/c1cccc(Nc2ccnc3cc(Cl)ccc23)c1` here?
Answer: The IC50 was 14.4 µM.

Question: With `O=Cc1cc(OCc2cn(-c3ccnc4ccc(Cl)cc34)nn2)ccc1Br` as the compound, how does the IC50 [6] read?
Answer: The IC50 was 7.39 µM.

Question: What about the IC50 [7] of the same compound?
Answer: Its IC50 is 6.19 µM.

Question: For `O=C(Cn1cc(COc2ccccc2)nn1)NCCCNc1ccnc2cc(Cl)ccc12`, which IC50 [9] is on record?
Answer: The IC50 was 180 µM.

Question: What about the CC50 at 72 h [10] of the same compound?
Answer: Its CC50 at 72 h is 40.6 µM.

Question: For `COc1ccc2nc(/C=C/c3ccncc3)cc(N3CCN(CCO)CC3)c2c1`, which IC50 [11] is on record?
Answer: The IC50 was over 10 µM.

Question: For `CC1(C)OB(c2ccc(OCc3cn(CCCNc4ccnc5cc(Cl)ccc45)nn3)cc2C=O)OC1(C)C`, which IC50 [6] is on record?
Answer: Its IC50 is 4.64 µM.

Question: What about the IC50 [7] of the same compound?
Answer: Its IC50 is 5.18 µM.

Question: With `COc1ccc2nc(/C=C/c3ccncc3)cc(N3CCN(C)CC3)c2c1` as the compound, how does the IC50 [11] read?
Answer: The IC50 was 0.61 µM.

Question: Which IC50 [9] does the source give for `O=C(Cn1cc(COc2ccc(Br)cc2)nn1)NCCNc1ccnc2cc(Cl)ccc12` here?
Answer: The IC50 was 0.04 µM.

Question: What about the CC50 at 72 h [10] of the same compound?
Answer: The CC50 at 72 h was 78.2 µM.

Question: Which IC50 [5] does the source give for `COc1ccc2nc(/C=C/c3ccc([N+](=O)[O-])cc3)cc(N3CCCCC3)c2c1` here?
Answer: Its IC50 is over 10 µM.

Question: With `COC(=O)/C=C/c1cccc(Nc2ccnc3cc(Cl)ccc23)c1` as the compound, how does the IC50 [12] read?
Answer: The IC50 was 1.81 µM.

Question: Which IC50 [8] does the source give for `Cc1ccc(C(CCN2CCOCC2)NCC(C)Nc2ccnc3cc(Cl)ccc23)cc1` (configuration not stated) here?
Answer: The IC50 was 2.94 µM.

Question: For `C/C(=N/c1ccccc1Nc1ccnc2cc(Cl)ccc12)c1ccc2ccccc2c1`, which IC50 [13] is on record?
Answer: Its IC50 is 77.6 µM.

Question: With `CC(CNC(CCN1CCOCC1)c1ccccc1)Nc1ccnc2cc(Cl)ccc12` (configuration not stated) as the compound, how does the IC50 [8] read?
Answer: The IC50 was 2.94 µM.

Question: Which results are given for `O=C1c2cccc(N3CCCCC3)c2C(=O)N1CCNc1ccnc2cc(Cl)ccc12`?
Answer: IC50 at 24 h [3]: 28.8 µM; IC50 [4]: 0.158 µM

Question: Which IC50 [12] does the source give for `COC(=O)/C=C/c1ccc(Nc2ccnc3cc(Cl)ccc23)cc1` here?
Answer: Its IC50 is 3.22 µM.

Question: Which IC50 [9] does the source give for `Cc1ccc(OCc2cn(CC(=O)NCCCCNc3ccnc4cc(Cl)ccc34)nn2)cc1` here?
Answer: Its IC50 is 83.5 µM.

Question: And the CC50 at 72 h [10]?
Answer: The CC50 at 72 h was 5.02 µM.

Question: Which IC50 [1] does the source give for `Cc1ccc(C(=O)NNc2ccnc3cc(Cl)ccc23)cc1` here?
Answer: Its IC50 is 0.92 µM.

Question: Which IC50 [12] does the source give for `O=C(O)/C=C/c1ccc(Nc2ccnc3cc(Cl)ccc23)cc1` here?
Answer: Its IC50 is 18.5 µM.

Question: For `CC(CNC(CCN(C)C)c1ccccc1)Nc1ccnc2cc(Cl)ccc12` (configuration not stated), which IC50 [8] is on record?
Answer: Its IC50 is 3.43 µM.

Question: With `N=C(N=C(N)N)SCCCNc1ccnc2cc(C(F)(F)F)ccc12` as the compound, how does the CC50 [2] read?
Answer: Its CC50 is over 10.6 µM.

Question: For `O=C(/C=C/c1cccc(Nc2ccnc3cc(Cl)ccc23)c1)OC1CCCCC1`, which IC50 [12] is on record?
Answer: The IC50 was 16.4 µM.

Question: With `COc1ccc(/C(C)=N/C(=S)NNc2ccnc3cc(Cl)ccc23)cc1OC` as the compound, how does the IC50 [13] read?
Answer: The IC50 was 38.7 µM.

Question: Which IC50 [6] does the source give for `OB1OCc2ccc(OCc3cn(-c4ccnc5ccc(Cl)cc45)nn3)cc21` here?
Answer: The IC50 was 5.22 µM.

Question: And the IC50 [7]?
Answer: The IC50 was 4.87 µM.

Question: For `O=[N+]([O-])c1ccc(NNc2ccnc3cc(Cl)ccc23)cc1`, which IC50 [1] is on record?
Answer: The IC50 was 3.26 µM.
